Assay results from publication PMC10535864, “Novel Aminopyrimidine-2,4-diones, 2-Thiopyrimidine-4-ones, and 6-Arylpteridines as Dual-Target Inhibitors of BRD4/PLK1: Design, Synthesis, Cytotoxicity, and Computational Studies” (Pharmaceuticals, 2023).
Like-named read-outs stand apart in the source and are kept apart here.

Tests used:
[1] = MTT cytotoxicity assay, U-937; type: cell-based; conditions: Homo sapiens, U-937, U937, MTT;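 note: Six-dose MTT colorimetric assay on cell monolayers, formazan absorbance read at 560 nm with 620 nm background removed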
U-937 renal cancer cells = assay: MTT cytotoxicity assay, U-937; type: cell-based; conditions: MTT; for Toxicity %: U937;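 for all read-outs here: Six-dose MTT colorimetric assay on cell monolayers, formazan absorbance read at 560 nm with 620 nm background removed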
BRD4 (BD2) = target: T1, BRD4 (BD2) (Homo sapiens, UniProt O60885); assay: BRD4 inhibitory activity assay (AlphaLISA Bromodomain Assay); type: binding;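 note: in vitro inhibition of recombinant BRD4 BD2 bromodomain binding to a BET bromodomain ligand, read by AlphaLISA proximity signal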
T1 construct: BRD4 (BD2) should be thawed on ice; purchased
Description: The BRD4 and PLK1 inhibitory assays were carried out in vitro in accordance with the manufacturer’s instructions; BRD4 was assessed using AlphaLISA Bromodomain Assay Protocol [67], and PLK1 kinase was tested using the ADP-Glo™ Kinase Assay Protocol [68], as detailed in the Supplementary file.
The BRD4 and PLK1 inhibitory assays were carried out in vitro in accordance with the manufacturer's instructions; BRD4 was assessed using AlphaLISA Bromodomain Assay Protocol [67], and PLK1 kinase was tested using the ADP-Glo™ Kinase Assay Protocol [68],
The master mixture was prepared as follows: N wells × (2.5 µL 3x BRD Homogeneous Assay Buffer 1 + 1 µL BET Bromodomain Ligand + 1.5 µL H2O). BRD4 (BD2) should be thawed on ice. Simply, the protein-containing tube was spined to recover the full content of the tube after the firstthaw. Both proteins should be aliquoted into single-use aliquots. Immediately, any remaining undiluted protein should be stored in aliquots at -80°C. BRD4 (BD2) was diluted in 1x BRD Homogeneous Assay Buffer 1 at 4 ng/µL. The diluted proteins were kept on ice until they were used. 5 µl of the master mixture is added to each well designated for the “Positive Control”, “Test Inhibitor”, and “Blank”. For the “Substrate Control”, 2.5 µL 3x BRD Homogeneous Assay Buffer 1 + 1 µL Non-acetylated Ligand 1 + 1.5 µL H2O is added. Each “Test Inhibitor” well received 2.5 µL of inhibitor solution, while the “Positive
Control”, “Substrate Control”, and “Blank” wells received 2.5 µL of the same solution without inhibitor (inhibitor buffer). Then, the “Blank” well is filled with 2.5 µL of 1x BRD Homogeneous Assay Buffer 1. After that, GSH
10 µL per well is added, the plate isshaken, and itis incubated at room temperature for 30 minutes. Streptavidin-
10 µL is added per well and incubated at room temperature for further 15 – 30 minutes [67]. The Alpha counts were read using the EnVision® multimode plate reader with the standard Alpha detection settings.

human recombinant PLK1 = human recombinant PLK1 (Homo sapiens, UniProt P53350); assay: PLK1 inhibitory activity assay (ADP-Glo Kinase Assay); type: biochemical; conditions: for IC50: mean of three independent experiments, read-out: PLK1 IC50 ± SD; for %inh: PLK1 Lab Report
Chain of human recombinant PLK1 (P53350 whole entry): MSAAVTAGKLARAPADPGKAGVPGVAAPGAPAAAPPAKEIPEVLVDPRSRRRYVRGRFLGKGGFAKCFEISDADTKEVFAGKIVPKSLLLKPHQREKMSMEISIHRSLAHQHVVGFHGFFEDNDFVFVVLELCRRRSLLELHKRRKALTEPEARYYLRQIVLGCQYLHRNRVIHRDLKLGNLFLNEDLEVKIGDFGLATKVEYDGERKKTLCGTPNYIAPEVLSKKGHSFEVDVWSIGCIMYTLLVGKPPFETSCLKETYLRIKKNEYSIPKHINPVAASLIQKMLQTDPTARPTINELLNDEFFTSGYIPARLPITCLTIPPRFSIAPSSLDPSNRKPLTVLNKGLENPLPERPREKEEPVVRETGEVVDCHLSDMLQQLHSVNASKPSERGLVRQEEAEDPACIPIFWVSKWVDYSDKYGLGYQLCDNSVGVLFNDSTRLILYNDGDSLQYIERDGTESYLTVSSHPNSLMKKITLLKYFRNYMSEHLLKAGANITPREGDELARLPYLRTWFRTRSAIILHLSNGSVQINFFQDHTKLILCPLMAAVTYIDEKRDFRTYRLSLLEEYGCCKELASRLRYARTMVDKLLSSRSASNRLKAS
Description: The BRD4 and PLK1 inhibitory assays were carried out in vitro in accordance with the manufacturer’s instructions; BRD4 was assessed using AlphaLISA Bromodomain Assay Protocol, and PLK1 kinase was tested using the ADP-Glo™ Kinase Assay Protocol, as detailed in the Supplementary file. […]
1.2.2. PLK1 inhibitory activity assay
The kinase reaction was performed with active human recombinant PLK1 and combined with the substrate dephosphorylated casein (positive control) using 1 X reaction buffer (40 mM Tris-HCl pH 7.4, 20 mM MgCl2, 0.1 mg/mL BSA, 1 mM DTT) and 20 μM ATP. The reaction was incubated at30°C for 45 minutes. The amount of ATP transferred was calculated using […] reagent from Promega according to the manufacturer’s instruction.
A plate-reading luminometer isused to measure the luminescence. […]

[2] = test system: MDA-MB-231 breast cancer cells; assay: MTT cytotoxicity assay, MDA-MB-231; type: cell-based; conditions: MDA-MB-231, MTT
Description: (§1) All newly synthetic compounds were tested for cytotoxicity using a six-dose MTT colorimetric assay on three cancer cell lines; namely, breast cancer cells (MDA-MB-231), colorectal adenocarcinoma cells (HT-29) and renal cancer cells (U-937). […] However, renal cancer cells (U-937) were discovered to be the least sensitive.
(§2) Using a six-dose MTT colorimetric assay, all new synthetic compounds were tested for cytotoxicity against three cancer cell lines: MDA-MB-231 breast cancer cells, HT-29 colorectal adenocarcinoma cells, and U-937 renal cancer cells. […] These cell lines were supplied by ATCC (American Type Culture Collection) via the Holding company for biological products and vaccines (VACSERA, Cairo, Egypt). The reference control used was Methotrexate. Detailed descriptions of the MTT colorimetric assay’s protocol can be found in the Supplementary file.
(§3) 1.1.In-vitro cytotoxicity screening
(§4) Using a six-dose MTT colorimetric assay, allnew synthetic compounds were tested for cytotoxicity against three cancer cell lines: MDA-MB-231 breast cancer cells,HT-29 colorectal adenocarcinoma cells, and U-937 renal […]
(§5) The cell lines were supplied by ATCC (American Type Culture Collection). The reference control used was Methotrexate. The cytotoxic activities of the examined compounds were quantified by inoculating a 96-well tissue culture plate with 1 X 10^5 cells / mL (100 uL/well) and incubating it at 37°C for 24 hours to develop a complete monolayer sheet. After forming a confluent sheet of cells, the growth medium was decanted from 96-well microtiter plates, and the cell monolayer was washed twice with wash media. Two-fold dilutions of tested samples were made in RPMI medium with 2% serum (maintenance medium), and 0.1 mL of each dilution was tested in different wells, with three wells serving as controls and receiving only maintenance medium. Following that, the plate was incubated at 37°C and examined. Cells were investigated for any physical signs of toxicity, such as partial or complete monolayer loss, rounding, shrinkage, or cell granulation. MTT solution was prepared (5mg/ml in PBS) (BIO BASIC CANADA INC), and 20 uL MTT solution was added to each well. After 5 minutes on a shaking table at150 rpm to thoroughly mix the MTT into the media, it was incubated (37°C, 5% CO2) for 4 hours to allow the MTT to be metabolized. Formazan (MTT metabolic product) was resuspended in 200 uL DMSO and shaken at 150 rpm for 5 minutes to thoroughly mix the formazan into the solvent. The optical density was measured at 560 nm, and the background was subtracted at 620 nm. Finally, the IC50 of the test compound in comparison to the reference was calculated using the GraphPad Prism software. […]

[3] = test system: HT-29 colorectal adenocarcinoma cells; assay: MTT cytotoxicity assay, HT-29; type: cell-based; conditions: MTT
Description: as §1, §2, §3, §4, §5

MDA-MB-231 cells [4] = assay: Apoptosis screening, annexin V-FITC/PI flow cytometry; type: cell-based; conditions: compared to non-treated control MDA-MB-231 cells
Source text: (§6) The results are indicated as a dot plot graph with four quadrant images (Figure 5B). […] However, both compounds also raised the necrotic percent by 1.8- and 2.8-fold, respectively, compared to non-treated cells. Overall, these findings implied that compound 7 could exert anticancer activity by producing cell cycle arrest at the G2/M phase and inducing apoptosis.
(§7) An Epics XL-MCL™ Flow Cytometer and Flowing software 2012 were used to count and analyze stained cells. The Supplementary file contains detailed descriptions of the flow cytometric analysis of cell-cycle distribution and cellular apoptosis. […]
(§8) 1.3.Cell cycle and apoptosis screening […]
(§9) investigated using an Ab-139418 propidium iodide flow cytometry kit and an Annexin-V assay and biparametric cytofluorimetric analysis, respectively, as instructed by the manufacturer. IC50s of both 7 and […]
Cytometer and Flowing software were used to count and analyze stained cells. The Supplementary file contains detailed descriptions of the flow cytometric analysis of cell-cycle distribution and cellular apoptosis. […]
1.3.2. Apoptosis screening […]
plate received 1 X 105 conc. breast cancer (MDA-MB-231) cells that were then incubated for 24 hours. The cells […]
with PBS, and stained for 15 min at room temperature in the dark with annexin V-FITC and PI in binding buffer (10 […]
µM HEPES, 140 µM NaCl, and 2.5 µM CaCl2 at pH 7.4). […]
high-quality RNA iseluted in RNase-free water.
1.4.2. Master mix preparation
All the following reagents were mixed together to give a totalvolume (50 μL). 2X SYBR® Green RT-PCR reaction mixture (25 μL), forward primer (10 μM) (1.5 μL), reverse primer (10 μM) (1.5 μL), nuclease-free H2O (11 μL), RNA template (1 pg to 100 ng totalRNA) (10 μL) and iScript reverse transcriptase for One-Step RT-PCR (1 μL).
1.4.3. Amplification protocol
Incubate complete reaction mixture in a real-time thermal detection system (Rotorgene) as follows: cDNA synthesis:
10 min at 50 °C, iScript reverse transcriptase inactivation: 5 min at 95 °C, polymerase chain reaction (PCR) cycling and detection (30–45 cycles): 10 s at 95 °C and 30 s at 55 °C to 60 °C (data collection step) and melt curve analysis:
1 min at95 °C and 1 min at55 °C and 10 s at55 °C (80 cycles, increasing each by 0.5 °C each cycle).

MDA-MB-231 cells [5] = assay: Cell cycle analysis, propidium iodide flow cytometry; type: cell-based; conditions: treated at IC50 concentration, 48 h, control 9.19%
Source text: as §6, §7, §8, §9
Cytometer and Flowing software were used to count and analyze stained cells. The Supplementary file contains detailed descriptions of the flow cytometric analysis of cell-cycle distribution and cellular apoptosis.
1.3.1. Cell cycle analysis […]
a six-well plate containing MDA-MB-231 breast cancer cells was seeded with 1 X 10^5 cells per well and then […]
Following that, cells were gathered and fixed in ice-cold 70% ethanol at 4 °C for 12 hours. The cells were then rinsed with cold Phosphate Buffer Saline (PBS) and incubated for 30 minutes at 37°C in 0.5 mL of PBS after the ethanol was removed. Propidium iodide was used to stain the cells for 30 min while they were in the dark. DNA content was determined using a flow cytometer. […]

[6] = test system: Bcl-2 gene in MDA-MB-231 cells; assay: RT-PCR gene expression, Bcl-2; type: cell-based; conditions: 48 h treatment, control = 1
Description: (§10) As well, there was an apparent increase in caspase-3, showing 3.9-fold more expression than in control cells.
(§11) Fluorometric analysis was used to gauge the level of these genes’ expression. The procedure for the used kit was carried out in accordance with the manufacturer’s instructions, which are detailed in the Supplementary file. […]
(§12) […] at pH 7.4). The flow cytometer was then used to examine the cells […]
(§13) 1.4.Estimation of apoptotic and anti-apoptotic gene markers […]
(§14) such as Bax and caspase-3, as well as anti-apoptotic genes such as Bcl-2, was studied using the BIORAD iScriptTM One-Step RT-PCR kit with SYBR® Green. MDA-MB-231 cells were cultured before being treated for 48 hours […]
(§15) Fluorometric analysis was used to gauge the level of these genes' expression. The procedure for the used kit was carried out in accordance with the manufacturer's instructions, which are detailed as follows:
(§16) 1.4.1. RNA isolation and reverse transcription m RNA isolation iscarried out using an RNeasy extraction kit,up to 1 x 10^7 cells, depending on the cell line. Cells are disrupted in RNeasy Lysis Buffer (RLT buffer), homogenized, then ethanol is added to the lysate, creating conditions that promote selective binding of RNA to the RNeasy membrane. […]

[7] = test system: caspase-3 gene in MDA-MB-231 cells; assay: RT-PCR gene expression, caspase-3; type: cell-based; conditions: 48 h treatment, control = 1
Description: as §10, §11, §12, §13, §14, §15, §16

[8] = test system: BAX gene in MDA-MB-231 cells; assay: RT-PCR gene expression, BAX; type: cell-based; conditions: 48 h treatment, control = 1
Description: as §10, §11, §12, §13, §14, §15, §16

Work on `COc1ccc(-c2cnc3c(n2)c(=O)[nH]c(=O)n3Cc2ccccc2)cc1` [Compound 9, 1-Benzyl-6-(4-methoxyphenyl)pteridine-2,4(1H,3H)-dione] yielded a viability at 0.312 µM ([1]; 0.312 uM) of 99.8%, a viability at 0.625 µM ([1]; 0.625 uM) of 100% and a viability at 1.25 µM ([1]; 1.25 uM) of 98.6%. It also gave a viability at 2.5 µM ([1]; 2.5 uM) of 77%, a viability at 5 µM ([1]; 5 uM) of 42% and a viability at 10 µM ([1]; 10 uM) of 19.3%. For the same compound, the IC50 (U-937 renal cancer cells; Homo sapiens, U-937, mean of three independent experiments ± SD, read-out: IC50 Value U-937) was 4420 ± 180 nM, the Toxicity % (U-937 renal cancer cells; 0.312 uM) was 0.2179% and the Toxicity % (U-937 renal cancer cells; 0.625 uM) was 0%. It also gave a Toxicity % (U-937 renal cancer cells; 1.25 uM) of 1.416%, a Toxicity % (U-937 renal cancer cells; 2.5 uM) of 23.04% and a Toxicity % (U-937 renal cancer cells; 5 uM) of 58.01%. It also gave a Toxicity % (U-937 renal cancer cells; 10 uM) of 80.66%, an IC50 (BRD4 (BD2); mean of three independent experiments, read-out: BRD4 IC50 ± SD) of 179 ± 8 nM and an IC50 (human recombinant PLK1) of 41 ± 1 nM. The melting point was > 300 °C, the IC50 ([2]; Homo sapiens, mean of three independent experiments ± SD, read-out: IC50 Value MDA-MB-231) was 2070 ± 30 nM and the viability at 0.312 µM ([2]; Homo sapiens, 0.312 uM) was 99.7%. It also gave a viability at 0.625 µM ([2]; Homo sapiens, 0.625 uM) of 99.2%, a viability at 1.25 µM ([2]; Homo sapiens, 1.25 uM) of 86.2% and a viability at 2.5 µM ([2]; Homo sapiens, 2.5 uM) of 33%. The viability at 5 µM ([2]; Homo sapiens, 5 uM) was 13.5%, the viability at 10 µM ([2]; Homo sapiens, 10 uM) was 5.45% and the Toxicity % ([2]; 0.312 uM) was 0.266%. For the same compound, the Toxicity % ([2]; 0.625 uM) was 0.7979%, the Toxicity % ([2]; 1.25 uM) was 13.79% and the Toxicity % ([2]; 2.5 uM) was 66.98%. The Toxicity % ([2]; 5 uM) was 86.48%, the Toxicity % ([2]; 10 uM) was 94.55% and the Toxicity % ([3]; HT29, 0.312 uM) was 0.2584%. It also gave a Toxicity % ([3]; HT29, 0.625 uM) of 0.08613%, a Toxicity % ([3]; HT29, 1.25 uM) of 0.08613% and a Toxicity % ([3]; HT29, 2.5 uM) of 12.36%. The Toxicity % ([3]; HT29, 5 uM) was 68.22%, the Toxicity % ([3]; HT29, 10 uM) was 88.67% and the viability at 0.312 µM ([3]; Homo sapiens, HT-29, HT29, 0.312 uM) was 99.7%. It also gave a viability at 0.625 µM ([3]; Homo sapiens, HT-29, HT29, 0.625 uM) of 99.9%, a viability at 1.25 µM ([3]; Homo sapiens, HT-29, HT29, 1.25 uM) of 99.9% and a viability at 2.5 µM ([3]; Homo sapiens, HT-29, HT29, 2.5 uM) of 87.6%. For the same compound, the viability at 5 µM ([3]; Homo sapiens, HT-29, HT29, 5 uM) was 31.8%, the viability at 10 µM ([3]; Homo sapiens, HT-29, HT29, 10 uM) was 11.3% and the IC50 ([3]; Homo sapiens, HT-29, mean of three independent experiments ± SD, read-out: IC50 Value HT-29) was 4110 ± 50 nM.
For `CC[C@@H]1C(=O)N(C)c2cnc(Nc3ccc(C(=O)N[C@H]4CC[C@H](N5CCN(CC6CC6)CC5)CC4)cc3OC)nc2N1C(C)C` [Volasertib, reference compound], the “elevation in the late apoptotic stage” value (MDA-MB-231 cells [4]) was ~110.2 fold, the “increase in early apoptosis” value (MDA-MB-231 cells [4]) was 24.4 fold and the “increase in total apoptosis” value (MDA-MB-231 cells [4]) was 16.3 fold. The “rise of necrotic percent” value (MDA-MB-231 cells [4]) was 2.8 fold, the “DNA content % at cell cycle phase %G2/M” value (MDA-MB-231 cells [5]) was 17.38% and the IC50 (BRD4 (BD2)) was 17 ± 1 nM. The “Gene expression Bcl-2 (anti-apoptotic gene)” value [6] was 0.351 fold, the “Gene expression Caspase-3 (apoptotic gene)” value [7] was 5.531 fold and the “%inh” value (human recombinant PLK1; conc 0.01 (unit not given)) was 42%. For the same compound, the “%inh” value (human recombinant PLK1; conc 0.1 (unit not given)) was 58%, the “%inh” value (human recombinant PLK1; conc 1 (unit not given)) was 76% and the “%inh” value (human recombinant PLK1; conc 10 (unit not given)) was 91%. The “%inh” value (human recombinant PLK1; conc 100 (unit not given)) was 96%, the IC50 (human recombinant PLK1) was 25 ± 1 nM and the “Gene expression BAX (apoptotic gene)” value [8] was 5.332 fold.
